Test: Circulating ketone level and ketotic efficiency after administration of D-BHB, D-BHV and D-1,3BD in various ratios to subjects at rest
Format: in vivo, human
Settings: based on measured plasma levels of FIG. 1
Excerpt: Examples include using a composition including D-BHB, D-BHV, and D-1,3BD in a subject at rest. The ketotic efficiency represents the net elevation of circulating ketones a ketone supplement affects over time in an individual. Ketotic efficiency may be represented as: Σt=0^n(mMol/L)/(g/kg)*t where mMol/L is the concentration of circulating β-hydroxybutyrate in the blood, g is the total dose of the combined D-BHB, D-BHV, and D-1,3,BD in grams, kg is the mass of the individual in kilograms, and t is an increment of time in minutes.
While this example pertains to a fasted subject at rest, the relative utility of blended vs pure constituents has also been observed in fed and active subjects.
As illustrated by the examples of FIG. 1, these exemplary compositions can advantageously elevate circulating ketones by approximately two times greater than other known compositions. Such a composition can sustain ketonemia for longer than either D-BHB or D-1,3BD can when ingested alone by a subject of a given weight as shown by the 100% line (i.e., contains D-BHB, but not D-1,3BD) and the 0% line (i.e., contains only D-1,3BD, but not D-BHB).
As shown in the following table, the increase in circulating ketone level with a 10 g dose in three human subjects at rest was maximal at between 45-55% D-BHB in the tested compositions. […]

## CC(O)CC(=O)O [D-BHB, (D)-β-hydroxybutyric acid]
  prolonged rise of blood ketone levels: A similar result was obtained

## CC(O)CCO [D-1,3BD, (D)-1,3 butanediol]
  prolonged rise of blood ketone levels: does not cause a prolonged rise of blood ketone levels
